# Entries after “also recorded” stand apart in the source; their conditions may differ.
# System: beef cattle
# Assay: 91-d study: carcass characteristics
# Type: in vivo
# Settings: for Adjusted fat thickness / Calculated yield grade / HGW / IM area / KPH / Dressing percentage / Lean maturity / Overall maturity / Skeletal maturity / Marbling score: 91-d treatment, LS mean; for Dressing percentage: unshrunk BW basis; for Lean maturity / Overall maturity / Skeletal maturity: 100 A, 200 B maturity; for Marbling score: 500 Small, 600 Modest
# Excerpt: A randomized complete block design was used to evaluate the effect of lubabegron (LUB) on performance over a 91-d period using 336 beef cattle (BW=453±34.5 kg) housed in cattle pen enclosures (CPE). Four LUB treatments were included in the study based on dose: 0.0 (control or CON), 1.38, 5.5, and 22.0 (mg·kg^−1 of DM). Because there was a limited number of CPE (n=8), three sequential cycles (blocks) were required to generate 6 replicates of each dose×sex combination. As such, 112 cattle (56 steers and 56 heifers) were housed concurrently within each cycle across the eight CPE (14 cattle/CPE), with each dose×sex combination being represented by a single CPE/cycle. To assure different frame sizes of cattle were represented, cattle in cycles one and three were large-frame Continental crossbreds, whereas cattle in cycle 2 were medium-frame British crossbreds.
# On day 91, cattle were loaded onto double-decked aluminum semi-trailers and transported ˜1,000 km to a commercial abattoir where they were slaughtered following an ˜5 to 9 h lairage. Carcass identification was maintained throughout the slaughter process by recording ear tag sequence at stunning and then cross-matching to sequentially numbered carcass tags. Hot carcass weights and KPH were measured following industry standard processing, and yield grade (YG) and quality grade data were collected from left carcass sides by trained university personnel after 22 h in a spray-chill system.
# Data were analyzed using version 9.2 of SAS (SAS Institute, Cary, NC), and the individual CPE were considered the experimental unit. Continuous variables were analyzed using PROC MIXED, with treatment (LUB dose), sex, and the dose×sex interaction as fixed effects, and cycle as the random effect included in the model. If the dose×sex interaction was not significant (P>0.05), the main effect of dose pooled across sexes was evaluated. When the main effect of dose was significant (P≤0.05) or tended to be significant (0.05≤P≤0.10), planned contrasts comparing each LUB dose to CON were performed in a pairwise fashion. If the dose×sex was significant (P≤0.05) planned contrasts comparing each LUB dose to CON within sex were performed in a pairwise fashion. Treatment means were estimated using the LSMEANS statement.
# Discrete variables were analyzed with a generalized linear mixed model using a binomial distribution and logit link function in PROC GLIMMIX. The classification of fixed and random effects and the handling of interactions and pairwise comparisons were performed in a similar manner as the continuous variables. Statistical analyses for YG were performed on both continuous and discrete (YG 1=1.00 to 1.99, YG 2=2.00 to 2.99, and so on) forms of data, and quality grades were further sorted into the five categories routinely used for determining premium or discount adjustments when cattle are marketed on a grid-based system (U.S. Prime, upper 2/3 Choice, low Choice, Select, and Standard). […] Fisher's exact test was performed using PROC FREQ to evaluate the frequency distribution of the CON cattle compared with LUB. Statistical significance for the main effects of dose was determined by P≤0.05 and tendencies were declared when 0.05≤P≤0.10.
compound,measurement,setting,value
"CC(C)(Cc1ccc(Oc2ncccc2C#N)cc1)NC[C@H](O)COc1ccccc1-c1cccs1 [LUB, 2-{4-[2-({(2S)-2-Hydroxy-3-[2-(2-thienyl)phenoxy]propyl}amino)-2-methylpropyl]phenoxy}nicotinonitrile]","Effect of LUB treatment on skeletal, lean, or overall maturity","91 d, P≥0.262",no effect
same,Probability of cattle producing a YG3 carcass,"91 d, YG as discrete variable, CON vs LUB-fed",greater (P<0.019) for CON-than LUB-fed cattle
same,"Probability of cattle producing YG1, YG2, or YG4 carcasses","91 d, across treatments, P≥0.233",similar
same,Effect of LUB treatment on calculated YG,"91 d, all LUB doses vs CON, P=0.155",no effect
same,Effect of LUB treatment on adjusted fat thickness,"91 d, all LUB doses vs CON, P=0.579",not affected; also recorded: no change
same,Dark cutter incidence,"91 d, only a single carcass over the entire study",not influenced by treatment
same,Increased HCW,"LUB 1.38 mg·kg^−1 DM (first of the respective treatments), 91 d",15 kg animal-1
same,Adjusted fat thickness,LUB 1.38 mg·kg^−1 DM,1.15 cm
same,Calculated yield grade,LUB 1.38 mg·kg^−1 DM,2.37
same,HGW,LUB 1.38 mg·kg^−1 DM,364 kg
same,IM area,LUB 1.38 mg·kg^−1 DM,94.8 cm^2
same,KPH,LUB 1.38 mg·kg^−1 DM,1.99%
same,Dressing percentage,LUB 1.38 mg·kg^−1 DM,62.4%
same,Lean maturity,LUB 1.38 mg·kg^−1 DM,163
same,Overall maturity,LUB 1.38 mg·kg^−1 DM,168
same,Skeletal maturity,LUB 1.38 mg·kg^−1 DM,170
same,Marbling score,LUB 1.38 mg·kg^−1 DM,573
same,Increased HCW,"LUB 5.5 mg·kg^−1 DM (second of the respective treatments), 91 d",16 kg animal-1
same,Adjusted fat thickness,LUB 5.5 mg·kg^−1 DM,1.24 cm
same,Calculated yield grade,LUB 5.5 mg·kg^−1 DM,2.41
same,HGW,LUB 5.5 mg·kg^−1 DM,365 kg
same,KPH,LUB 5.5 mg·kg^−1 DM,1.96%
same,Dressing percentage,LUB 5.5 mg·kg^−1 DM,62.7%
same,Lean maturity,LUB 5.5 mg·kg^−1 DM,167
same,Overall maturity,LUB 5.5 mg·kg^−1 DM,169
same,Skeletal maturity,LUB 5.5 mg·kg^−1 DM,170
same,Marbling score,LUB 5.5 mg·kg^−1 DM,560
same,Increased HCW,"LUB 22.0 mg·kg^−1 DM (third of the respective treatments), 91 d",16 kg animal-1
same,Adjusted fat thickness,LUB 22.0 mg·kg^−1 DM,1.19 cm
same,Calculated yield grade,LUB 22.0 mg·kg^−1 DM,2.25
same,HGW,LUB 22.0 mg·kg^−1 DM,365 kg
same,IM area,LUB 22.0 mg·kg^−1 DM,96.8 cm^2
same,KPH,LUB 22.0 mg·kg^−1 DM,1.61%
same,Dressing percentage,LUB 22.0 mg·kg^−1 DM,62.8%
same,Lean maturity,LUB 22.0 mg·kg^−1 DM,163
same,Overall maturity,LUB 22.0 mg·kg^−1 DM,168
same,Skeletal maturity,LUB 22.0 mg·kg^−1 DM,172
same,Marbling score,LUB 22.0 mg·kg^−1 DM,562
same,Carcass weights heavier than CON,"cattle fed LUB (1.38, 5.5, 22.0 mg·kg^−1 DM), 91 d",about 15 kg
same,Probability of grading high Choice vs CON,"cattle fed LUB, 91 d, P=0.004",lower
same,Probability of grading low Choice vs CON,"cattle fed LUB, 91 d, P=0.021",greater

# — patent US20260048046A1, “METHOD FOR IMPROVING GROWTH PERFORMANCE IN FEEDLOT CATTLE” (Elanco US Inc., priority 2022, published 2026)
